In patent publication US20100247525A1 (priority 2006, published 2010):
“And” between values parts separate entries of the source, which are not always exact repeats. Equal values may be shown once.

How the values were obtained:
NFkappaB translocation = details: mouse, in vivo
human TNF-α = molecular target: T1, human TNF-α (Homo sapiens, UniProt P01375); details: in vivo
T1 construct: purchased Chemicon, Inc

LeTx pre-sensitized mice = details: mouse, in vivo

T1 sequence (P01375 77-233 limits assumed): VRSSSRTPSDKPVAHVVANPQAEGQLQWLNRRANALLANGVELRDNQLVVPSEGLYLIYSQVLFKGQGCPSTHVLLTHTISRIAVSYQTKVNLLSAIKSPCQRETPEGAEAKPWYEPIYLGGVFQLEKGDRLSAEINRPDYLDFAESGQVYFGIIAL

Molecule: Cc1ccc(=O)n(-c2ccccc2)c1 [Pirfenidone]
- survival enhancement (NFkappaB translocation): 40% and 20%

Molecule: Etanercept
- prevention of lethality (human TNF-α): prevents lethality
- protection when the death initiator is human TNF-α (human TNF-α): protects

Molecule: PAM3-CSK-4
- initiation of RDP (LeTx pre-sensitized mice): initiates RDP
- initiation of RDP (death initiator) (LeTx pre-sensitized mice): death initiators
